Experimental data reported in article PMC7568301, “Characterization and engineering of a two-enzyme system for plastics depolymerization” (Proceedings of the National Academy of Sciences of the …, 2020).

Tests used:
MHETase [1] = target: T1, MHETase (Pseudideonella sakaiensis, UniProt A0A0K8P8E7); test: HPLC hydrolysis assay, initial velocities, substrate inhibition model fit; assay type: biochemical; set-up: gene ISF6_0224; pET21b(+)-based expression in E. coli, purified; residue borders and tags only in SI; catalytic triad Ser225, Asp492, His528; details: substrate inhibition constant
T1 sequence (A0A0K8P8E7 18-603 limits assumed): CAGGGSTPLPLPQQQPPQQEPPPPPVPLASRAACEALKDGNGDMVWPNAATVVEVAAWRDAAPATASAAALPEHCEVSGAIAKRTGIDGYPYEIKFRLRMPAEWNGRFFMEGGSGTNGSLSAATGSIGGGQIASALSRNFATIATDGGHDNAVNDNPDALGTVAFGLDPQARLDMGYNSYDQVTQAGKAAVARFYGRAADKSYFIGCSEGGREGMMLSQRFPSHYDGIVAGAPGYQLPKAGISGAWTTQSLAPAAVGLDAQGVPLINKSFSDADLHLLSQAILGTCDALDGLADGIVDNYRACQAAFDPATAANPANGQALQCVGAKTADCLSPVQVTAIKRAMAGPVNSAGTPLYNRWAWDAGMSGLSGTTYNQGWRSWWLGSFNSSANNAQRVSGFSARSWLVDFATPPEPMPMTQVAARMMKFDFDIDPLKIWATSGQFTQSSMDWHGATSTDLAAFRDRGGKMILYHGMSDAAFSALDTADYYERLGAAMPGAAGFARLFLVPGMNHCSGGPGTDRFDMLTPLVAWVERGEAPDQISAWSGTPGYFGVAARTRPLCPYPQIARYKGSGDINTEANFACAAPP
Source text: HPLC hydrolysis assay, initial velocities, substrate inhibition model fit on MHETase | MHETase is also the most susceptible to substrate inhibition with a Kk value of […]

C. thiooxydans homolog [2] = test system: T2, C. thiooxydans homolog; test: as above; assay type: biochemical, Comamonas thiooxydans; details: substrate inhibition constant
T2 construct: gene MHETase homolog; Gly179 at the position of MHETase Ser131
Source text: HPLC hydrolysis assay, initial velocities, substrate inhibition model fit on C. thiooxydans homolog | MHETase and both homologs also display this behavior

C. thiooxydans homolog [3] = test system: T3, C. thiooxydans homolog; details: substrate inhibition model
T3 construct: gene MHETase homolog

MHETase [4] = target: T1, MHETase; test: X-ray crystallography, […] Å; assay type: binding; set-up: gene ISF6_0224; pET21b(+)-based expression in E. coli, purified; residue borders and tags only in SI; catalytic triad Ser225, Asp492, His528; details: active site; fully occupied in 6QZ3, partially occupied in 6QZ1
[5] = substrate: O=C(O)c1ccc(C(=O)OCCO)cc1; test: HPLC hydrolysis assay, initial velocities, simple Michaelis-Menten fit; assay type: biochemical, Pseudideonella sakaiensis; details: simple Michaelis-Menten model
Source text: HPLC hydrolysis assay, initial velocities, simple Michaelis-Menten fit on MHETase | The S131G mutant has a Km value approximately eightfold higher than that of wild-type MHETase

Molecule: O=C(O)c1ccc(C(=O)OCCO)cc1 [MHET]
- Kk (MHETase [1]): 307.30 ± 20.65 µM
- Kk (C. thiooxydans homolog [2]): 78.80 ± 3.04 µM
- Km (C. thiooxydans homolog [3]): 175 ± 4.75 µM

Molecule: O=C(O)c1ccccc1 [benzoate]
- X-ray crystallography, 1.6 Å (MHETase [4]): one structure with a fully occupied benzoic acid ligand (6QZ3)

B1: MHETase (Pseudideonella sakaiensis; S131G) (protein)
chain: CAGGGSTPLPLPQQQPPQQEPPPPPVPLASRAACEALKDGNGDMVWPNAATVVEVAAWRDAAPATASAAALPEHCEVSGAIAKRTGIDGYPYEIKFRLRMPAEWNGRFFMEGGGGTNGSLSAATGSIGGGQIASALSRNFATIATDGGHDNAVNDNPDALGTVAFGLDPQARLDMGYNSYDQVTQAGKAAVARFYGRAADKSYFIGCSEGGREGMMLSQRFPSHYDGIVAGAPGYQLPKAGISGAWTTQSLAPAAVGLDAQGVPLINKSFSDADLHLLSQAILGTCDALDGLADGIVDNYRACQAAFDPATAANPANGQALQCVGAKTADCLSPVQVTAIKRAMAGPVNSAGTPLYNRWAWDAGMSGLSGTTYNQGWRSWWLGSFNSSANNAQRVSGFSARSWLVDFATPPEPMPMTQVAARMMKFDFDIDPLKIWATSGQFTQSSMDWHGATSTDLAAFRDRGGKMILYHGMSDAAFSALDTADYYERLGAAMPGAAGFARLFLVPGMNHCSGGPGTDRFDMLTPLVAWVERGEAPDQISAWSGTPGYFGVAARTRPLCPYPQIARYKGSGDINTEANFACAAPP
notes: pET21b(+)-based expression in E. coli, purified; residue borders and tags only in SI; catalytic triad Ser225, Asp492, His528
- Km [5]: 184.10 ± 3.50 µM
